Values after ≈ are worked out from the molar mass of the structure shown. Read-outs that look alike come from different tables or passages of the source.
How the values were obtained:
[1] = Aqueous solubility assay by ultraviolet spectroscopy; assay type: physicochemical; conditions: water (saturated aqueous solution), thermodynamic from solid, 2 hours at 37°C, read-out: Aq. Solubility
Protocol: Ultraviolet spectroscopy was performed using Femto spectrophotometer. The wavelength used in solubility assay was determined by the -λ max characteristic of each compound. Spectra were analyzed in Femtoscan software. Mass spectrometry was obtained by positive ionization at Bruker AmaZon SL and data analyzed in Compass 1.3.SR2 software.
The solubility assay was performed considering the absorptivity of compounds in ultraviolet spectroscopy as described by Schneider and coworkers. The assay wavelength was determined by the λ max characteristic of each compound.
Saturated aqueous solutions were prepared (0.01 mg/mL) and were kept under stirring for 2 hours at 37°C. The supernatant was filtered in 0,45 µm filters and transferred to a quartz cuvette (10 mm) to spectra acquisition.
Solubility was determined by linear regression using as graph plots, solutions prepared by dilutions of the original solution in methanol. The data were obtained in triplicates and the mean values were used to the graph plots. The correlation coefficient (R^2) values were between 0.9972 and 0.9999.

HL-60 (human leukemia) = assay: In vitro antiproliferative MTT assay, HL-60; assay type: cell-based; conditions: for IC50: Homo sapiens, HL-60; for SI Lymphocyte/ HL-60: IC50 for human lymphocytes/IC50 for cancer cell line
Protocol: (§1) The antiproliferative activity of compounds 5a–r was determined based on an MTT assay and using CA-4 as standard against the tumor cell lines: HL-60 (human leukemia), SF-295 (human glioblastoma), MDA-MB435 (melanoma), PC3M (prostate cancer), OVCAR-8 (ovaries adenocarcinoma), NCI-H258M (pulmonary bronchio-alveolar carcinoma) and HCT-8 (adenocarcinoma ileocecal) (Table 2). To determine the selectivity index of compounds 5a–r, their antiproliferative profile was also evaluated toward human lymphocytes (Table 2).
(§2) Compounds (0.009–5 µg/mL) were tested for cytotoxic activity against selected cancer cell lines: SF-295 (glioblastoma), HCT-8 (colon), MDAMB-435 (melanoma), HL60 (leukemia), PC3M (prostate cancer), OVCAR-8 (ovaries adenocarcinoma) and NCI-H258M (pulmonary bronchio-alveolar carcinoma). All cell lines were kindly obtained from the National Cancer Institute (Bethesda, MD, USA).Tumor cell proliferation was quantified through the ability of living cells to reduce the yellow dye 3-(4,5-dimethyl-2-thiazolyl)-2,5-diphenyl-2H-tetrazolium bromide (MTT, Sigma Aldrich)) to a purple formazan product and absorbance was measured at 595 nm (DTX-880, Beckman Coulter).

[2] = test system: OVCAR-8 (ovaries adenocarcinoma); assay: In vitro antiproliferative MTT assay, OVCAR-8; assay type: cell-based; conditions: for IC50: Homo sapiens, OVCAR-8, Table 2, MTT; for SI Lymphocyte/ OVCAR-8: IC50 for human lymphocytes/IC50 for cancer cell line
Protocol: as §1, §2

[3] = test system: SF-295 (human glioblastoma); assay: In vitro antiproliferative MTT assay, SF-295; assay type: cell-based; conditions: for IC50: Homo sapiens, SF-295, read-out: IC50 SF295; for SI Lymphocyte/ SF-295: IC50 for human lymphocytes/IC50 for cancer cell line
Protocol: as §1, §2

[4] = test system: NCI-H358M (pulmonary bronchio-alveolar carcinoma); assay: In vitro antiproliferative MTT assay, NCI-H358M; assay type: cell-based; conditions: for SI Lymphocyte/ NCI-H358M: IC50 for human lymphocytes/IC50 for cancer cell line; for IC50: NCI-H358M, Table 2, MTT
human lymphocytes = assay: In vitro antiproliferative assay, human lymphocytes; assay type: cell-based; conditions: Lymphocyte, Table 2
Protocol: as §1
To investigate the selective cytotoxic activity of the N-acylhydrazones derivatives (5a–r), their antiproliferative potency was also assessed toward human lymphocytes and the results were compared to the data from CA-4 ([…]). The selectivity index (SI), which was the IC50 for human lymphocytes/IC50 for cancer cell lines after treatment with CA-4 and N-acylhydrazones (5a–r), was calculated, as depicted in Table 3. […] The best comparative selectivity indices (CA-4 vs 5b) were obtained from the SF-295 (SI = 13), MDA-MB435 (SI = 42) and NCI-H258M (SI = 9.5) tumor cell lines, and the worst results were found for OVCAR-8 (SI = 0.5).

MDA-MB435 (melanoma) [5] = assay: In vitro antiproliferative MTT assay, MDA-MB435; assay type: cell-based; conditions: Homo sapiens, MDA-MB-435
MDA-MB435 (melanoma) [6] = assay: In vitro antiproliferative MTT assay, MDA-MB435; assay type: cell-based; conditions: IC50 for human lymphocytes/IC50 for cancer cell line
Protocol: as §1, §2

PC3M (prostate cancer) = assay: In vitro antiproliferative MTT assay, PC3M; assay type: cell-based; conditions: for IC50: Homo sapiens, PC-3M, Table 2, MTT; for SI Lymphocyte/ PC3M: IC50 for human lymphocytes/IC50 for cancer cell line
Protocol: as §1, §2

[7] = test system: HCT-8 (adenocarcinoma ileocecal); assay: In vitro antiproliferative MTT assay, HCT-8; assay type: cell-based; conditions: for IC50: Homo sapiens, HCT-8; for SI Lymphocyte/ HCT-8: IC50 for human lymphocytes/IC50 for cancer cell line
Protocol: as §1, §2

| SMILES | solubility at 2 h [1] [µg/mL] | IC50 (HL-60 (human leukemia); Table 2, MTT) [nM] | SI Lymphocyte/ HL-60 (HL-60 (human leukemia)) | IC50 [2] [nM] | IC50 ([3]; Table 2, MTT) [nM] | SI Lymphocyte/ SF-295 [3] | SI Lymphocyte/ NCI-H358M [4] | IC50 [4] [nM] | IC50 (human lymphocytes) [nM] | IC50 (MDA-MB435 (melanoma) [5]; Table 2, MTT) [nM] | SI Lymphocyte/ MDA-MB345 (MDA-MB435 (melanoma) [6]) | IC50 (PC3M (prostate cancer)) [nM] | IC50 ([7]; Table 2, MTT) [nM] | SI Lymphocyte/ HCT-8 [7] | melting point [°C] | SI Lymphocyte/ OVCAR-8 [2] | SI Lymphocyte/ PC3M (PC3M (prostate cancer)) | also measured |
| --- | --- | --- | --- | --- | --- | --- | --- | --- | --- | --- | --- | --- | --- | --- | --- | --- | --- | --- |
| COc1ccc(/C=C\c2cc(OC)c(OC)c(OC)c2)cc1O [CA-4, Combretastatin A4] | 5.44 (≈ 17.2 µM) | 2.1 | 1.44±0.05 | 0.37 | 6.2 | 0.44±0.04 | 0.52±0.12 | 8 | 3.2 | 7.9 | 0.42±0.02 | 4.7 | 5.3 | 0.59±0.01 | – | – | – | – |
| COc1cc(C(=O)N/N=C/c2cccc(O)c2)cc(OC)c1OC [Compound 5c, (E)-N′-(3-hydroxybenzylidene)-3,4,5-trimetoxybenzohydrazide] | 5.68 (≈ 17.2 µM) | 1630 | 2.60±0.10 | 5780 | 13000 | 0.32±0.02 | 0.48±0.01 | 9500 | 4480 | 120 | 32.50±4.50 | 7510 | 4300 | 0.96±0.35 | 227 to 229 | 0.80±0.005 | 0.58±0.01 | – |
| COc1cc(C(=O)N/N=C/c2ccc(O)cc2)cc(OC)c1OC [Compound 5d, (E)-N′-(4-hydroxybenzylidene)-3,4,5-trimetoxybenzohydrazide] | 15 (≈ 45.4 µM) | 2630 | 5.15±0.05 | 6180 | 16000 | 0.82±0.02 | 1.16±0.06 | 11800 | 13400 | 880 | 16.06±0.86 | 4570 | 6540 | 2.07±0.07 | 189 | 2.22±0.02 | 2.96±0.86 | – |
| COc1cc(C(=O)N/N=C/c2ccc(O)c(O)c2)cc(OC)c1OC [Compound 5e, (E)-N′-(3,4-dihydroxybenzylidene)-3,4,5-trimetoxybenzohydrazide] | 3.94 (≈ 11.4 µM) | 9300 | 0.82±0.02 | > 25000 | > 25000 | – | 0.30±0.00 | > 25000 | 7360 | 11800 | 0.06±0.00 | 24400 | > 25000 | – | 160 | 0.2±0.00 | 0.30±0.005 | – |
| COc1ccc(/C=N/NC(=O)c2cc(OC)c(OC)c(OC)c2)cc1OC [Compound 5g, (E)-N′-(3,4-dimethoxybenzylidene)-3,4,5-trimetoxybenzohydrazide] | 1.94 (≈ 5.18 µM) | 4430 | 4.10±0.10 | 7110 | 18100 | 0.99±0.005 | 1.80±0.005 | 10200 | 18000 | 2110 | 8.41±0.09 | 12600 | 7050 | 2.50±0.005 | 190 to 191 | 2.55±0.05 | 1.44±0.04 | – |
| COc1cc(C(=O)N/N=C/c2ccc(C)cc2)cc(OC)c1OC [Compound 5o, (E)-3,4,5-trimethoxy-N′-(4-methylbenzylidene) benzohydrazide] | 6.93 (≈ 21.1 µM) | 4.8 | 1.59±0.09 | 8.2 | 93 | 0.08±0.00 | 0.009±0.001 | 891 | 7.3 | 35 | 0.21±0.01 | 12.7 | 46 | 0.15±0.005 | – | 0.91±0.01 | 0.56±0.04 | – |
| COc1cc(C(=O)N/N=C/c2ccc(Br)cc2)cc(OC)c1OC [Compound 5r, (E)-N′-(4-bromobenzylidene) - 3,4,5-trimetoxybenzohyidrazide] | 0.262 (≈ 0.666 µM) | 10.9 | 3.07±0.83 | 7.3 | 59 | 0.49±0.05 | 0.19±0.01 | 167 | 31.4 | 18.3 | 1.81 | 12.7 | 22 | 1.57±0.17 | – | 4.02±0.28 | 2.29±0.20 | – |
| COc1cc(C(=O)N(C)/N=C/c2ccccc2)cc(OC)c1OC [Compound 11, (E)-N′-benzylidene-3,4,5-trimethoxy-N-methylbenzohydrazide] | – | – | – | – | – | – | – | – | – | – | – | – | – | – | 71 to 73 | – | – | IC50 (HL-60 (human leukemia); Table 4): 30 nM; IC50 ([3]; Table 4): 3800 nM; IC50 (MDA-MB435 (melanoma) [5]; Table 4): 1910 nM; IC50 ([7]; Table 4): 540 nM |
